{
  "source": "paper PMC12019481",
  "about": "(Nature Communications, 2025)",
  "origin": "cited, not measured here",
  "key": {"GAT1": {"target": "GAT1 (Homo sapiens, UniProt P30531)", "sequence (P30531 whole entry)": "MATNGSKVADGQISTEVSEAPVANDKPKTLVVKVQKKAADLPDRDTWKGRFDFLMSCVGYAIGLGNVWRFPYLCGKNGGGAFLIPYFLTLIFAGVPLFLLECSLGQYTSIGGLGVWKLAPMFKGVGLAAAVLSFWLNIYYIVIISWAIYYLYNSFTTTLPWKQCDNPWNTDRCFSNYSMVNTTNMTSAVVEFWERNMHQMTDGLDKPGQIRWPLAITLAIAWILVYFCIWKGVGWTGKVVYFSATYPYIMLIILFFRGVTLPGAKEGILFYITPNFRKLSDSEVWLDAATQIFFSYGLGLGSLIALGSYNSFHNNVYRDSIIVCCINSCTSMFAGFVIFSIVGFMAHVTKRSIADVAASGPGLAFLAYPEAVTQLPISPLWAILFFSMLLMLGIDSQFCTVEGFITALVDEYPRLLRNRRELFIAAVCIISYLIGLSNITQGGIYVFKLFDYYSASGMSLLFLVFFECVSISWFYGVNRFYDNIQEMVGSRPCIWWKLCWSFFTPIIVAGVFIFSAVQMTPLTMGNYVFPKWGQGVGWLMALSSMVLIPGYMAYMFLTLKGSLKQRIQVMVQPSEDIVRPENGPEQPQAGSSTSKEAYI"}},
  "data": [
    {"compound": "5-(2-Thienyl)Isatin", "values": [
      {"measurement": "selectivity for GAT3", "setting": "GAT3", "value": "~ 167 fold"}
    ]},
    {"compound": "Cc1ccsc1C(=CCCN1CCC[C@@H](C(=O)O)C1)c1sccc1C", "note": "[tiagabine]", "values": [
      {"measurement": "selectivity for GAT1", "setting": "GAT1", "value": "10,000–20,000 fold"}
    ]}
  ]
}
